Laboratory results taken from ChEMBL document CHEMBL1146922, “A novel ketone derivative of artemisinin biotransformed by Streptomyces griseus ATCC 13273” (Bioorg Med Chem Lett, 2006).
In brackets after ≈: the same amount, converted by molar mass.

Tested on: Plasmodium falciparum; call rule not given here
Assay: Antimicrobial activity against Plasmodium falciparum FCC1/HN
Format: functional, organism-based
[1] = Plasmodium falciparum, FCC1/HN, read-out: IC50

IC50 | SMILES | IC50 [1] [µg/mL]
 | C[C@@H]1[C@@H](O)C[C@H]2[C@@H](C)C(=O)O[C@@H]3O[C@]4(C)CC[C@@H]1C32OO4 | 0.0293 (≈ 0.0982 µM)
 | C[C@@H]1[C@H](O)C[C@H]2[C@@H](C)C(=O)O[C@@H]3O[C@]4(C)CC[C@@H]1C32OO4 | 0.0346 (≈ 0.116 µM)
 | C[C@@H]1C(=O)C[C@H]2[C@@H](C)C(=O)O[C@@H]3O[C@]4(C)CC[C@@H]1C32OO4 | 0.0257 (≈ 0.0867 µM)
Not Active | C[C@@H]1CC[C@H]2[C@@H](C)C(=O)O[C@@H]3O[C@@]4(C)OC32[C@H]1C[C@H]4O | 
 | C[C@@H]1CC[C@H]2[C@@H](C)C(=O)O[C@@H]3O[C@@]4(C)CC[C@@H]1[C@]32OO4 [ARTEMISININ] | 0.0031 (≈ 0.011 µM)
